Measured values taken from ChEMBL document CHEMBL2407031, “Structure-activity relationship study of phenylpyrazole derivatives as a novel class of anti-HIV agents” (Bioorg Med Chem Lett, 2013).

How the values were obtained:
[1] = tested on: Human immunodeficiency virus 1; experiment: Antiviral activity against HIV-1 infected in human NCK45 cells assessed as inhibition of infection after 48 hrs by dual-reporter gene assay; format: functional, organism-based; settings: Human immunodeficiency virus 1, NCK45, 48 h
[2] = Cytotoxicity against human NCK45 cells at 1 uM; format: cell-based; settings: nck45, 1 µM
[3] = Cytotoxicity against human NCK45 cells at 10 uM; format: cell-based; settings: nck45, 10 µM

SMILES	EC50 [1] [nM]	Activity [2]	Activity [3]
CCC(=O)Nc1cc(CNc2c(C#N)c(C)nn2-c2ccc3ncccc3c2)cc(Cl)c1O	> 10000		
CCC(=O)Nc1cc(CNc2c(C#N)c(C)nn2-c2cccc([N+](=O)[O-])c2)cc(Cl)c1O	> 1000		Toxic
CCC(=O)Nc1cc(CNc2c(C#N)c(C)nn2-c2cccc(NC(C)=O)c2)cc(Cl)c1O	> 10000		
CCC(=O)Nc1cc(CNc2c(C#N)c(C)nn2-c2ccc(C)cc2)cc(Cl)c1O	> 1000		Toxic
CCC(=O)Nc1cc(CNc2c(C#N)c(C)nn2-c2ccccc2C)cc(Cl)c1O	> 1000		Toxic
CCC(=O)Nc1cc(CNc2c(C#N)c(C)nn2-c2cc(Cl)cc(Cl)c2)cc(Cl)c1O	> 1000		Toxic
CCC(=O)Nc1cc(CNc2c(C#N)c(C)nn2-c2ccc3ccccc3c2)cc(Cl)c1O	> 1000		Toxic
CCC(=O)Nc1cc(CNc2c(C#N)c(C)nn2-c2cccc3ccccc23)cc(Cl)c1O	> 1000		Toxic
CCC(=O)Nc1cc(CNc2c(C#N)c(C)nn2-c2cccnc2)cc(Cl)c1O	> 10000		
CCC(=O)Nc1cc(CNc2c(C#N)c(C)nn2-c2nccc3ccccc23)cc(Cl)c1O	> 1000		Toxic
CCC(=O)Nc1cc(CNc2c(C#N)c(C)nn2-c2ccccc2)cc(C)c1O	> 10000		
CC(=O)Nc1cc(CNc2c(C#N)c(C)nn2-c2ccccc2)cc(Cl)c1O	> 1000		Toxic
CCCCCC(=O)Nc1cc(CNc2c(C#N)c(C)nn2-c2ccccc2)cc(Cl)c1O	> 10000		
CCNC(=O)c1cc(CNc2c(C#N)c(C)nn2-c2ccccc2)cc(Cl)c1O	> 1000		Toxic
CCC(=O)Nc1cc(CNc2c(C#N)cnn2-c2ccccc2)cc(Cl)c1O	> 1000		Toxic
CCC(=O)Nc1cc(CNc2cc(C)nn2-c2ccccc2)cc(Cl)c1O	> 10000		
CCC(=O)Nc1cc(CNc2c(C#N)c(C)nn2C)cc(Cl)c1O	> 10000		
CCC(=O)Nc1cc(CNc2c(C#N)c(C)nn2C2CCCCC2)cc(Cl)c1O	> 1000		Toxic
CCC(=O)Nc1cc(CNc2c(C#N)c(CC)nn2-c2ccccc2)cc(Cl)c1O	> 10000		
CCC(=O)Nc1cc(CNc2c(C#N)c(-c3ccccc3)nn2-c2ccccc2)cc(Cl)c1O	> 10000		
CCC(=O)Nc1cc(CNc2c(C(=O)OC)c(C)nn2-c2ccccc2)cc(Cl)c1O	> 1000		Toxic
CCC(=O)Nc1cc(CNc2c(C#N)c(C)nn2-c2cccc(OC)c2)cc(Cl)c1O	> 10000		
CCC(=O)Nc1cc(Cl)cc(CNc2c(C#N)c(C)nn2-c2ccccc2)c1	> 10000		
CCC(=O)Nc1cc(CNc2c(C#N)c(C)nn2-c2ccccc2)cc(Cl)c1OC	> 10000		
CCC(=O)Nc1cc(CNc2c(C#N)c(C)nn2-c2ccccc2)ccc1O	> 10000		

Continued, in another order:

EC50 [1] [nM]	SMILES	Activity [2]	Activity [3]
> 100	CCC(=O)Nc1cc(CNc2c(C#N)c(C)nn2-c2cccc(-c3ccccc3OC)c2)cc(Cl)c1O	Toxic	
> 100	CCC(=O)Nc1cc(CNc2c(C#N)c(C)nn2-c2cccc(-c3ccccc3C)c2)cc(Cl)c1O	Toxic	
250	CCC(=O)Nc1cc(CNc2c(C#N)c(C)nn2-c2cccc(-c3ccccc3Cl)c2)cc(Cl)c1O		Toxic
> 100	CCC(=O)Nc1cc(CNc2c(C#N)c(C)nn2-c2cccc(-c3cccc(OC)c3)c2)cc(Cl)c1O	Toxic	
58	CCC(=O)Nc1cc(CNc2c(C#N)c(C)nn2-c2cccc(-c3cccc(C)c3)c2)cc(Cl)c1O	Toxic	
> 100	CCC(=O)Nc1cc(CNc2c(C#N)c(C)nn2-c2cccc(-c3cccc(Cl)c3)c2)cc(Cl)c1O	Toxic	
> 100	CCC(=O)Nc1cc(CNc2c(C#N)c(C)nn2-c2cccc(-c3ccc(OC)cc3)c2)cc(Cl)c1O	Toxic	
97	CCC(=O)Nc1cc(CNc2c(C#N)c(C)nn2-c2cccc(-c3ccc(C)cc3)c2)cc(Cl)c1O	Toxic	
> 100	CCC(=O)Nc1cc(CNc2c(C#N)c(C)nn2-c2cccc(-c3ccc(Cl)cc3)c2)cc(Cl)c1O	Toxic	
47	CCC(=O)Nc1cc(CNc2c(C#N)c(C)nn2-c2cccc(-c3ccc(Cl)c(Cl)c3)c2)cc(Cl)c1O	Toxic	
> 100	CCC(=O)Nc1cc(CNc2c(C#N)c(C)nn2-c2cccc(-c3ccc4ccccc4c3)c2)cc(Cl)c1O	Toxic	
> 1000	CCC(=O)Nc1cc(CNc2c(C#N)c(C)nn2-c2cccc(-c3ccncc3)c2)cc(Cl)c1O		Toxic
> 100	CCC(=O)Nc1cc(CNc2c(C#N)c(C)nn2-c2cccc(-c3cnc4ccccc4c3)c2)cc(Cl)c1O	Toxic	
> 100	CCC(=O)Nc1cc(CNc2c(C#N)c(C)nn2-c2cccc(C(F)(F)F)c2)cc(Cl)c1O	Toxic	
130	CCC(=O)Nc1cc(CNc2c(C#N)c(C)nn2-c2cccc(-c3ccccc3)c2)cc(Cl)c1O	Toxic	
> 100	CCC(=O)Nc1cc(CNc2c(C#N)c(C)nn2-c2ccccn2)cc(Cl)c1O	Toxic	
3300	CCCC(=O)Nc1cc(CNc2c(C#N)c(C)nn2-c2ccccc2)cc(Cl)c1O		
370	CCC(=O)Nc1cc(CNc2c(C#N)c(C)nn2-c2cccc(C)c2)cc(Cl)c1O		Toxic
> 100	CCC(=O)Nc1cc(CNc2c(C#N)c(C)nn2-c2cccc(Br)c2)cc(Cl)c1O	Toxic	
330	CCC(=O)Nc1cc(CNc2c(C#N)c(C)nn2-c2cccc(F)c2)cc(Cl)c1O		Toxic
320	CCC(=O)Nc1cc(/N=N/c2c(C#N)c(C)nn2-c2ccccc2)cc(Cl)c1O		
440	CCC(=O)Nc1cc(/C=C/c2c(C#N)c(C)nn2-c2ccccc2)cc(Cl)c1O		
360	CCC(=O)Nc1cc(CNc2c(C#N)c(C)nn2-c2ccccc2)cc(Cl)c1O		
